Measurements from paper PMC7305236, “The atypical chemokine receptor ACKR3/CXCR7 is a broad-spectrum scavenger for opioid peptides” (Nature Communications, 2020).
Like-named read-outs stand apart in the source and are kept apart here.

Assays:
Experiment in all cases: Figure S2a opioid peptide screen on chemokine receptors
Design in all cases: dose or concentration left out as unconfirmed
[1] = target: T1, CCR2 (Homo sapiens, UniProt P41597); format: cell-based
T1 construct: expressed in transfected cells
T1 sequence (P41597 1-360 isoform P41597-2): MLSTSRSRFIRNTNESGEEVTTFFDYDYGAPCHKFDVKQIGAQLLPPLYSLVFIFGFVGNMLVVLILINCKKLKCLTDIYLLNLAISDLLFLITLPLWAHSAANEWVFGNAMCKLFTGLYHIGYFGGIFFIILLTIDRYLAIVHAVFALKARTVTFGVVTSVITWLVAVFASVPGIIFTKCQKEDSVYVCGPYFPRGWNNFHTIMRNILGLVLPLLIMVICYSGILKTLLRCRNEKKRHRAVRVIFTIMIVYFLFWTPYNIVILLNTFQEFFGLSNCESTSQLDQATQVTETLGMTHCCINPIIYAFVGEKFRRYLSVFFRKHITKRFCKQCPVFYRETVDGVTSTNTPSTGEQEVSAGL

[2] = target: CCR8 (Homo sapiens, UniProt P51685); settings: read-out: CCR8 activity, ctrl+ = 100, Figure S2a
[3] = target: T2, CCR1 (Homo sapiens, UniProt P32246); format: cell-based
T2 construct: expressed in transfected cells
T2 sequence (P32246 1-355): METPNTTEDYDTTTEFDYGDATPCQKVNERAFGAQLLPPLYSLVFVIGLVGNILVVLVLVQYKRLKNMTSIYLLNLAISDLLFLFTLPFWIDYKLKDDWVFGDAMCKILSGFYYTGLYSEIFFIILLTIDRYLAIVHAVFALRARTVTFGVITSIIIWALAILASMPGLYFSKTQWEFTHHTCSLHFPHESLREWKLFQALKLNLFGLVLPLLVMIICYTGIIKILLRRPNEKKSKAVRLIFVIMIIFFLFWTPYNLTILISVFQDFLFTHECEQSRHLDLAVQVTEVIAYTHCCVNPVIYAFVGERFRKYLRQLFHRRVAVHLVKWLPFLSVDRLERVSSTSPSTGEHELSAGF

[4] = target: T3, CXCR3B (Homo sapiens, UniProt P49682); format: cell-based
T3 construct: expressed in transfected cells; host or cells: U87 cells
T3 sequence (P49682 1-415 isoform P49682-2): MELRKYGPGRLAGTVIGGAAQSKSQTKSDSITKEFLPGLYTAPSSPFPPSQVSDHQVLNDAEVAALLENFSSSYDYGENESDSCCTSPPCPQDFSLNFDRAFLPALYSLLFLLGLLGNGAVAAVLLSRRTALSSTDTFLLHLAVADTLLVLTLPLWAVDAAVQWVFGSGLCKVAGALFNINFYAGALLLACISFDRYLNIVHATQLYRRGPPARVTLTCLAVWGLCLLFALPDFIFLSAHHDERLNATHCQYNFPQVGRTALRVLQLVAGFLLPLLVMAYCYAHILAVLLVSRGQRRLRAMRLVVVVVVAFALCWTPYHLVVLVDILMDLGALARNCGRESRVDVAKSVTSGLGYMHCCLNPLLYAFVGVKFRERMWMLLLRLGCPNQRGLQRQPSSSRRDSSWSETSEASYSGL

[5] = target: T4, CCR4 (Homo sapiens, UniProt P51679); format: cell-based
T4 construct: expressed in transfected cells
T4 sequence (P51679 1-360): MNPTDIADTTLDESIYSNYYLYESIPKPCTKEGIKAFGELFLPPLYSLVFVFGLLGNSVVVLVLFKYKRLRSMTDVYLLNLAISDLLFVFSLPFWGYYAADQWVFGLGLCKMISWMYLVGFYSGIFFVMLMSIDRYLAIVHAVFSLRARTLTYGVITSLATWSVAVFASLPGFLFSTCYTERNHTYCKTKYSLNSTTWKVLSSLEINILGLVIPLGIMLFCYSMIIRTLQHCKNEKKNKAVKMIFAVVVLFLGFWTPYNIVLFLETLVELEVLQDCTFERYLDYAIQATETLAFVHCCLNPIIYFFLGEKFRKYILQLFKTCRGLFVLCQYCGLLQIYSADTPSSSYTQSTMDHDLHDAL

[6] = target: T5, CCR6 (Homo sapiens, UniProt P51684); format: cell-based
T5 construct: expressed in transfected cells
T5 sequence (P51684 1-374): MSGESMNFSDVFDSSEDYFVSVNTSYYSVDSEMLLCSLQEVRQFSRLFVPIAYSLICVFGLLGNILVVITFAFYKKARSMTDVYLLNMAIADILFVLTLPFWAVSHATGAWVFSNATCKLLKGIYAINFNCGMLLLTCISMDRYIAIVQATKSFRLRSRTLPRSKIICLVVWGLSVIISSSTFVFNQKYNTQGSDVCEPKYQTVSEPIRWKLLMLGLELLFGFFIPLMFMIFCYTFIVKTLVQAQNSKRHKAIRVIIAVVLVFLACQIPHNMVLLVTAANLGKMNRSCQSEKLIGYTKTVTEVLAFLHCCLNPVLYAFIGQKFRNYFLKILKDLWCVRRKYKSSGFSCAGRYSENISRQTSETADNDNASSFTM

[7] = target: T6, ACKR2 (Homo sapiens, UniProt O00590); format: cell-based
T6 construct: expressed in transfected cells; host or cells: U87 cells (human glioblastoma)
T6 sequence (O00590 1-384): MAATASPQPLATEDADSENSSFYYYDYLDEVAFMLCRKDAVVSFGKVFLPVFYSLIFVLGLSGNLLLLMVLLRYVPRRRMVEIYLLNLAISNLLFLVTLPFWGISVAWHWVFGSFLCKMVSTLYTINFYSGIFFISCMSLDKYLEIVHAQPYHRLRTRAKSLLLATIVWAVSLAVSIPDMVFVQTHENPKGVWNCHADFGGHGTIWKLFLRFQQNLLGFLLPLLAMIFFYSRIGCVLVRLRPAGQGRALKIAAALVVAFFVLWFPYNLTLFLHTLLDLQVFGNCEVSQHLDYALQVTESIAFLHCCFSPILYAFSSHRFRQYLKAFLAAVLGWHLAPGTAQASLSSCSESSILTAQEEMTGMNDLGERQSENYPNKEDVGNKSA

[8] = replicate 1, read-out: CCR2 activity, ctrl+ = 100
[9] = replicate 2, read-out: CCR2 activity, ctrl+ = 100
[10] = replicate 3, read-out: CCR2 activity, ctrl+ = 100
[11] = replicate 1, read-out: CCR1 activity, ctrl+ = 100
[12] = replicate 2, read-out: CCR1 activity, ctrl+ = 100
[13] = replicate 3, read-out: CCR1 activity, ctrl+ = 100
[14] = replicate 1, read-out: CXCR3B activity, ctrl+ = 100
[15] = replicate 2, read-out: CXCR3B activity, ctrl+ = 100
[16] = replicate 3, read-out: CXCR3B activity, ctrl+ = 100
[17] = replicate 1, read-out: CCR4 activity, ctrl+ = 100
[18] = replicate 2, read-out: CCR4 activity, ctrl+ = 100
[19] = replicate 3, read-out: CCR4 activity, ctrl+ = 100
[20] = replicate 1, read-out: CCR6 activity, ctrl+ = 100
[21] = replicate 2, read-out: CCR6 activity, ctrl+ = 100
[22] = replicate 3, read-out: CCR6 activity, ctrl+ = 100
[23] = replicate 1, read-out: ACKR2 activity, ctrl+ = 100
[24] = replicate 2, read-out: ACKR2 activity, ctrl+ = 100
[25] = replicate 3, read-out: ACKR2 activity, ctrl+ = 100

CCR8, sequence (P51685 whole entry): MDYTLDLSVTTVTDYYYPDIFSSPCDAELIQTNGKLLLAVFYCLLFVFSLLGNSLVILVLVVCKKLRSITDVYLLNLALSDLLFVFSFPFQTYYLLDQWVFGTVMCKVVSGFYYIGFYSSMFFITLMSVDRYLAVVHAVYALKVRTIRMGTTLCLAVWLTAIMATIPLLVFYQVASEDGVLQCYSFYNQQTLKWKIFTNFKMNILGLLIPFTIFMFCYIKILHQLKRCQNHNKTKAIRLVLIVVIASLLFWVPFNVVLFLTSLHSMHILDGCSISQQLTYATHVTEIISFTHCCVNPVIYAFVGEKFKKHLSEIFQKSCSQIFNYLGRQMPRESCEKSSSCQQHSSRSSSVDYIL

Row | SMILES | activation [1, 8] [%] | activation [1, 9] [%] | activation [1, 10] [%] | activation ([2]; replicate 1) [%] | activation ([2]; replicate 2) [%] | activation ([2]; replicate 3) [%] | activation [3, 11] [%] | activation [3, 12] [%] | activation [3, 13] [%] | activation [4, 14] [%] | activation [4, 15] [%] | activation [4, 16] [%] | activation [5, 17] [%] | activation [5, 18] [%] | activation [5, 19] [%] | activation [6, 20] [%] | activation [6, 21] [%] | activation [6, 22] [%] | activation [7, 23] [%] | activation [7, 24] [%] | further results
1 | CC[C@H](C)[C@H](NC(=O)[C@H](CCCNC(=N)N)NC(=O)[C@H](CCCNC(=N)N)NC(=O)[C@H](CC(C)C)NC(=O)[C@H](Cc1ccccc1)NC(=O)CNC(=O)CNC(=O)[C@@H](N)Cc1ccc(O)cc1)C(=O)N[C@@H](CCCNC(=N)N)C(=O)N1CCC[C@H]1C(=O)N[C@@H](CCCCN)C(=O)N[C@@H](CC(C)C)C(=O)N[C@@H](CCCCN)C(=O)N[C@@H](Cc1c[nH]c2ccccc12)C(=O)N[C@@H](CC(=O)O)C(=O)N[C@@H](CC(N)=O)C(=O)N[C@@H](CCC(N)=O)C(=O)O [Dynorphin A] | -0.0585 | -2.61 | -0.105 | -0.0612 | -35.8 | -0.797 | -16.7 | 4.28 | 6.56 | -2.77 | 1.06 | -1.99 | -3.55 | 0.0408 | 5 | -2.27 | -1.32 | -4.07 | 15.1 | -26 | activation [7, 25]: 2.73%
2 | C[C@H](NC(=O)CNC(=O)[C@@H](NC(=O)[C@H](Cc1ccccc1)NC(=O)CNC(=O)CNC(=O)[C@@H](N)Cc1ccccc1)[C@@H](C)O)C(=O)N[C@@H](CCCNC(=N)N)C(=O)N[C@@H](CCCCN)C(=O)N[C@@H](CO)C(=O)N[C@@H](C)C(=O)N[C@@H](CCCNC(=N)N)C(=O)N[C@@H](CCCCN)C(N)=O [Nociceptin 1-13] | 0.793 | -0.93 | 1.52 | -35.6 | -2.22 | 6.11 | -0.621 | 1.74 | -35.9 | -2.86 | 1.14 | 7.41 | -0.0637 | 0.246 | 0.411 | 0.552 | -0.975 | -0.351 | -54.6 | -2.02 | activation [7, 25]: 10.5%
3 | CSCC[C@H](NC(=O)[C@H](Cc1ccccc1)NC(=O)CNC(=O)CNC(=O)[C@@H](N)Cc1ccc(O)cc1)C(=O)N[C@@H](CCCNC(=N)N)C(=O)N[C@@H](CCCNC(=N)N)C(=O)N[C@H](C(N)=O)C(C)C [Adrenorphin] | -0.901 | -1.07 | -1.1 | -17.4 | -15.7 | -4 | -15 | 8.25 | -9.95 | 3.73 | 1.55 | 0.555 | -4.72 | -4.07 | 2.73 | -3.87 | 1.08 | -1.64 | -9.62 | -28.7 | activation [7, 25]: -0.924%
4 | CSCC[C@H](NC(=O)[C@H](Cc1ccccc1)NC(=O)CNC(=O)CNC(=O)[C@@H](N)Cc1ccc(O)cc1)C(=O)N[C@@H](CCCNC(=N)N)C(=O)N[C@@H](CCCNC(=N)N)C(=O)N[C@H](C(=O)NCC(=O)N[C@@H](CCCNC(=N)N)C(=O)N1CCC[C@H]1C(=O)N[C@@H](CCC(=O)O)C(=O)N[C@@H](Cc1c[nH]c2ccccc12)C(=O)N[C@@H](Cc1c[nH]c2ccccc12)C(=O)N[C@@H](CCSC)C(=O)N[C@@H](CC(=O)O)C(=O)N[C@@H](Cc1ccc(O)cc1)C(=O)N[C@@H](CCC(N)=O)C(=O)N[C@@H](CCCCN)C(=O)N[C@@H](CCCNC(=N)N)C(=O)N[C@@H](Cc1ccc(O)cc1)C(=O)NCC(=O)O)C(C)C [BAM22] | -0.243 | -1.08 | 1.22 | -18.7 | -21.3 | -4.1 | -7.62 | 9.7 | 10.5 | -1.43 | 0.626 | 5.18 | -0.405 | -3.44 | 3.02 | -2.07 | -2.99 | -1.86 | -3.78 | -1.93 | activation [7, 25]: -0.478%
